Source: patent US20180289764A1, “TRADITIONAL CHINESE MEDICINE COMPOSITION FOR TREATING PSORIASIS” (Guangdong Provincial Hospital of Chinese Medicine, priority 2015, published 2018)

Key:
psoriasis = settings: systemic treatment of psoriasis, background table; cited from earlier work
[1] = tested on: mouse tail scaled epidermis; test: Effects on the mouse tail scaled epidermis; format: in vivo, KM mice
Description: 60 KM mice weighing 18-25 g with half males and half females were selected in this study, the mice were qualified in an adaptive breeding observation. The mice were layered with Excel according to weights, 6 mice every layer, and the mice in each layer were randomly assigned to each group, 10 mice every group, and the mice were divided into 6 groups in total, that is normal control group, the group of the present invention, the group of patent 200910091066.5, the group of the patent of 201210183904.3, the group of methotrexate tablet and the group of yujin yinxie tablet. The mice in each group were given by intragastric administration at a volume of 20 mL·kg-1·d-1 in the morning, once every day for 14 days. The normal control group was given equal volume of pure water. The mice were sacrificed one hour after the last administration, and a long strip of the dorsal skin of the root of the mouse tail (about 1.0 cm×0.2 em) was took off and fixed with 10% formaldehyde solution, embedded in paraffin, and stained with HE. The tail scales of each mouse were observed under an optical microscope. Those where the granulosa layers arranged in rows are in the epidermis of scales between the two follicular orifice, are known as the scales with granulosa layer. […]

[2] = tested on: propranolol-induced guinea pig psoriasis model; test: Propranolol-induced guinea pig psoriasis model; format: in vivo, Hartley guinea pigs
Description: The preparation of 5% propranolol hydrochloride emulsion: 5 g propranolol hydrochloride was dissolved with 50% ethanol, 5 mL 1,2-propanediol was added as a composite accelerator, and 5 g PVPK30 was added as a film-forming material. 50% ethanol was added to 100 mL, and preparing into 5% propranolol hydrochloride emulsion until used
80 Hartley guinea pigs weighing 200-250 g with half males and half females were selected in this study, the Hartley guinea pigs were qualified in an adaptive breeding observation. 10 guinea pigs (half male and half female) were used as a normal control group based on a random allocation, and no drugs were administrated to them; the other 70 guinea pigs (half males and half females) were treated with 5% propranolol hydrochloride emulsion (about 200 μL) evenly in the skins behind both of ears, 2 times a day, continuing treating 4 weeks, for modeling. 4 weeks later, 10 guinea pigs were sacrificed to examine whether the model was successful (with the thickness of the ear skin as an index). The remaining 60 guinea pigs were then layered with Excel according to weights, 6 guinea pigs every layer, and the guinea pigs in each layer were randomly assigned to each group, 10 guinea pigs every group, and the guinea pigs were divided into 6 groups in total, that is the model control group, the group of the present invention, the group of patent 201210183904.3, the group of the patent of 200910091066.5, the group of methotrexate tablet and the group of yujin yinxie tablet. The guinea pigs in each group were given by intragastric administration at a volume of 20 mL·kg-1·d-1 in the morning, once every day for 10 days. The normal control group and the model control group were given equal volume of pure water. The guinea pigs were sacrificed one hour after the last administration, and the skin behind both of ears was took off and fixed with 10% formaldehyde solution, embedded in paraffin, and stained with HE, observed under an optical microscope. 10 high-power fields were counted, the thickness of the epidermis was measured with a micrometer, and averaged; the auricular pathology of guinea pigs was used to perform a histological examination, observe vasodilation situations, which were denoted as 0, 0.5, 1 and 2 points according to normal, light, medium and heavy degrees.

| SMILES | Efficacy rate (the efficient) (psoriasis) | Formation of the epidermis granulosa layer of the mouse tail scale compared with normal control group ([1]; intragastric 14 days, P<0.05 or P<0.01) | The number of scales in the granulosa layer ([1]; per 100 scales, expressed as a percentage, intragastric once daily for 14 days, x ± s, n = 10) | Blood vessel dilatation ([2]; 0, 0.5, 1, 2 points for normal, light, medium, heavy, intragastric 10 days, x ± s, n = 10) | Effect on epidermis thickness of guinea pig ears and hemangiectasis compared with model control ([2]; P<0.01) | Histopathological examination ([2]; guinea pig ear skin, HE stain) | Epidermal thickness ([2]; guinea pig ear skin, intragastric once daily for 10 days, x ± s, n = 10) |
| --- | --- | --- | --- | --- | --- | --- | --- |
| CC1=C(/C=C/C(C)=C/C=C/C(C)=C/CO)C(C)(C)CCC1 [Vitamin A, vitamin A (retinol)] | 25% |  |  |  |  |  |  |
| CN(Cc1cnc2nc(N)nc(N)c2n1)c1ccc(C(=O)N[C@@H](CCC(=O)O)C(=O)O)cc1 [methotrexate tablet, methotrexate] | 20-40% | significantly promote the formation of the epidermis granulosa layer of the mouse tail scale | 43.65 ± 11.18 | 0.42 ± 0.12 score | significantly reduce the thickness of the epidermis of guinea pig ears and reduce hemangiectasis | hyperkeratosis and parakeratosis was obviously alleviated | 96.61 ± 4.78 μm |
